# Measured values published in patent US10093973B2, “Polymerase compositions and methods” (LIFE TECHNOLOGIES CORPORATION, priority 2009, dated 2018).
# Test system: 5′-[32P]-labeled templates or 5′-TAMRA-labeled templates
# Experiment: Photostability assay (primer extension after 405 nm excitation radiation)
# Format: biochemical
# Conditions: after 30 seconds of exposure at 50 W/cm2, 405 nm
# Text: The photostability of an exemplary reference polymerase comprising a His-tagged version of Phi-29 polymerase (“HP1; see, e.g., U.S. Provisional Application No. 61/184,770, filed Jun. 5, 2009 for disclosure of HP1 sequence and purification) comprising the amino acid sequence of SEQ ID NO: 20, and an exemplary modified polymerase comprising the amino acid sequence of SEQ ID NO: 19 and further comprising the amino acid substitution D175A were characterized by measuring the amount of primer extension observed in each sample prior to and following exposure to excitation radiation at 405 nm Reactions (100 μL) containing 50 mM Tris, pH 7.5, 50 mM NaCl, 1 mM DTT, 2 mM MnCl2, 0.3% BSA, 10-200 nM polymerase and 100 nM nanoparticles (or premade polymerase-nanoparticle conjugates; see, e.g., U.S. Provisional Application No. 61/184,770 filed Jun. 5, 2009), and 100 nM 5′-[^32P]-labeled templates or 5′-TAMRA-labeled templates were prepared with and without the Oxygen Scavenging System (OSS). […] Polymerase activity was quantified as the % of extended primer (as compared to the total starting amount of primer), as measured by densitometric analysis. Phototoxicity is quantified by measuring the percent decrease in polymerase activity that occurs when samples are illuminated compared to non-illuminated samples. The photostability is quantified by subtracting the observed photosensitivity from 100.
substance,measurement,value
"HP1: Phi-29 polymerase lacking exonuclease activity with N-terminal His-tag, linker, D12A and D66A mutations [reference compound]",% activity retained,less than 40%
